In patent US20080242688A1, “Method 741” (ASTRAZENECA AB, priority 2007, published 2008):

Experiments:
Rat QWBA study = format: in vivo; details: single oral dose
Description: AZD0328 is a low protein binding molecule across species including human (<15%) across the concentration range 21.6 to […] (0.1 to 100 μM). In most species, the binding was concentration and gender independent. […] [14C]-AZD0328-derived radioactivity was rapidly distributed to the organs and tissues with high levels of radioactivity associated with the contents of the GI tract and the major excretion organs, including kidney and liver. The radioactivity declined rapidly and by 168 h postdose radioactivity levels were not detectable in most tissues, with the exception of a few ocular tissues and nasal turbinates. […] Notable association of [^14C]-AZD0328-related radioactivity with the melanin-containing tissues was observed, with measurable radioactivity still present in the ocular tissues at 216 h postdose. [14C]-AZD0328-derived radioactivity crossed the placenta.

[1] = Mass balance of [14C]-AZD0328 in rats; format: in vivo, rat
Description: In the mass balance study conducted in fed rats, a Tmax of 0.5 h to 1 h was observed following single and multiple oral doses (solution). The bioavailability of AZD0328 (total radioactivity) in this study was >90%. […] Generally speaking, the elimination was complete within the 24-hour interval at the dose levels tested.
Pharmacokinetics and mass balance of [^14C]-AZD0328 were investigated in rats. The excretion of [^14C]-AZD0328-derived radioactivity in rats was mainly through the kidney. Over the course of the study, radioactivity recovered in urine and feces accounted for approximately 85% and 8%, respectively.

[2] = Pharmacological activity of metabolite
Description: Pyridinyl methylation of AZD0328 was a unique polar metabolite (M2) observed in dog hepatocytes. Other minor hydroxylation/oxidation and glucuronide conjugation products were detected in monkey, dog, rat, and guinea pig hepatocyte incubations and mini-pig hepatic microsome incubations. […] Analysis of plasma and urine samples from either orally or iv dosed rats confirmed N-oxide product of AZD0328 was a main product in the excretion and circulation. The percentage of AZD0328 N-oxide in the plasma from male rats was much higher than from females.

For `c1cnc2c(c1)C[C@@]1(CN3CCC1CC3)O2` [[^14C]-AZD0328], the “time of maximum blood and plasma concentrations of radioactivity” value (Rat QWBA study) was 0.5 h, the “radioactivity recovered in feces” value [1] was ~8% and the “radioactivity recovered in urine” value [1] was “approximately 85%”.
In the case of `[O-][N+]12CCC(CC1)C1(Cc3cccnc3O1)C2` (stereo not shown) [quinuclidinyl-N-oxide of AZD0328], the “pharmacological activity of metabolite” value [2] is reported as “pharmacological inactive”.
